Each structure is given as a SMILES string.

T1 sequence (O14842 whole entry): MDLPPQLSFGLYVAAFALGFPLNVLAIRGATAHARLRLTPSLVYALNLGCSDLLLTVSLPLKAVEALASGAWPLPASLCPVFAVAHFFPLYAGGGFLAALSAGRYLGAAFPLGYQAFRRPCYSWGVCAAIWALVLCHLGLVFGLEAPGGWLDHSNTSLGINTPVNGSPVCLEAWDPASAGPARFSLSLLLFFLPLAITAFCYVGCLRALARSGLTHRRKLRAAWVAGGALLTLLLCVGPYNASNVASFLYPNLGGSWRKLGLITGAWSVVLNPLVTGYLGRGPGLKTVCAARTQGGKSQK

The experiment has as its target T1, human GPR40 (Homo sapiens, UniProt O14842).
T1 construct: expressed in transfected cells
The experiment in a line: Ca2+ mobilization (FLIPR) in a stable GPR40-expressing cell; GPR40 agonist activity. The class given is cell-based. The conditions noted are these: compound concentration corresponding to 50% PosiC, 100% = intracellular calcium level induced by 80 μM palmitic acid. The procedure:
Evaluation of effect of test compounds on Ca^2+ mobilization by using a stable GPR40-expressing cell A stable human GPR40-expressing HEK293 cell was used. A cell suspension was prepared such that the above-mentioned cells were present at 6×10^5 cells/mL in a cell culture medium (D-MEM (Nikken Bio Medical Laboratory) supplemented with 10% (v/v) fetal bovine serum (Biowest) and 1% (v/v) penicillin-streptomycin solution (Invitrogen)). The cell suspension was plated in a 384-well plate (poly-D-lysine coated plate; Falcon) in a volume of 25 μl/well, and the plate was incubated at 37° C. in an atmosphere of 5% CO2 overnight. Each test compound was added to the cell at each concentration as below, and then the change in intracellular calcium level was measured by FLIPR^TETRA (Molecular Devices). Before the FLIPR assay, the following preparative solutions were prepared. First, an assay buffer was prepared for use in the preparation of a fluorescent dye solution and a diluent buffer solution. The assay buffer was prepared by adding 1M HEPES solution (Invitrogen) to Hanks' Balanced Salt Solution (Invitrogen), followed by adjusting the pH to 7.4 with 1M NaOH (Nacalai Tesque). Next, the fluorescent dye solution and the diluent buffer solution were prepared. The fluorescent dye solution was prepared in accordance with the instruction manual attached to Fluo-4NW calcium assay kit (Invitrogen), followed by addition of bovine serum albumin (Sigma) to a final concentration of 0.1% (w/v). The diluent buffer solution was prepared by adding bovine serum albumin (Sigma) to the assay buffer to give a final concentration of 0.1% (w/v). After removing a medium supernatant from the cell culture plate incubated overnight, the fluorescent dye solution was added to the plate in a volume of 25 μl/well. The plate was incubated at 37° C. in an atmosphere of 5% CO2 for 90 minutes to promote the fluorescent dye uptake in the cell. Meanwhile, the test compounds (i.e., the compounds prepared in Examples) dissolved in dimethyl sulfoxide (DMSO; Nacalai Tesque) were diluted with the diluent buffer solution, to prepare each compound solution at each concentration. In addition, a palmitic acid solution was prepared as a positive control solution (hereinafter abbreviated as PosiC). A 40 μl aliquot of each sample solution prepared as above was added to each well of a 384-well polypropylene plate to prepare a compound plate. Finally, after the sufficient uptake of the fluorescent dye in the cell, the cell plate and the compound plate were set to FLIPR^TETRA. After the above pretreatment, the change in intracellular calcium level was measured by FLIPR^TETRA upon addition of 25 μl of each test compound solution at each concentration. The GPR40 agonist activity of each test compound at each concentration was determined as a relative activity level (% PosiC) with the intracellular calcium level induced by 80 μM palmitic acid (a GPR40 agonist) set to 100%. Next, each compound concentration corresponding to 50% PosiC was calculated based on the % PosiC value, to compare between agonist activities of the test compounds. In the tables, “++++” indicates 0.01 μM or more but less than 0.1 μM, “+++” indicates 0.1 μM or more but less than 1 μM, “++” indicates 1 μM or more but less than 10 μM, and “+” indicates 10 μM or more for 50% posiC value. In the tables, “N.T.” indicates “not tested”.
With `CC#C[C@@H](CC(=O)O)c1ccc(OCC2CCCC3(C=CCCC3(C)C)C2)cc1` (mixture of isomers) [Example 19, (3S)-3-[4-(11,11-dimethyl-spiro[5.5]undec-7-en-2-ylmethoxy)-phenyl]-hex-4-ynoic acid], the EC50 is 10 to 100 nM.

Regarding `O=C(O)CCc1ccc(OCC2CCC3(CCCCCC3)C2)cc1` (racemic) [Example 21, 3-[4-(spiro[4.6]undec-2-ylmethoxy)-phenyl]-propionic acid], the EC50 is ≥ 10000 nM.

Take `CC#C[C@@H](CC(=O)O)c1ccc(OCC2CCCC3(CCCCC3)C2)cc1` (mixture of isomers) [Example 28, (3S)-3-[4-(spiro[5.5]undec-2-ylmethoxy)-phenyl]-hex-4-ynoic acid]: the EC50 lay within 10 to 100 nM.

As for `CC#C[C@@H](CC(=O)O)c1ccc(OCC2CCC3(CCCC3)C2)cc1` (mixture of isomers) [Example 30, (3S)-3-[4-(spiro[4.4]non-2-ylmethoxy)-phenyl]-hex-4-ynoic acid], the EC50 was in the range of 100 to 1000 nM.

Take `Cn1nnnc1C(CC(=O)O)c1ccc(OCC2CCCC3(CCCCC3)C2)cc1` (racemic) [Example 40, 3-(1-methyl-1H-tetrazol-5-yl)-3-[4-(spiro[5.5]undec-2-ylmethoxy)-phenyl]-propionic acid]: the EC50 lay in the range of 10 to 100 nM.

With `CCOC(CC(=O)O)c1ccc(OCC2=CC3(CCCCC3)CCC2)cc1` (racemic) [Example 41, 3-ethoxy-3-[4-(spiro[5.5]undec-1-en-2-ylmethoxy)-phenyl]-propionic acid], the EC50 fell in the range of 10 to 100 nM.

Regarding `O=C(O)CCc1ccc(OCC2CCCC3(CCCCC3)C2)cc1` (racemic) [Example 46, 3-[4-(spiro[5.5]undec-2-ylmethoxy)-phenyl]-propionic acid], the EC50 was 1000 to 10000 nM.

Regarding `CC#CC(CC(=O)O)c1ccc(OCC2CCCC3(CCCCC3)C2)cc1` (racemic) [Example 47, 3-[4-(spiro[5.5]undec-2-ylmethoxy)-phenyl]-hex-4-ynoic acid], the EC50 fell in the range of 100 to 1000 nM.

In the case of `CC1(C)CCCC2(CCCC(COc3ccc(CCC(=O)O)cc3)C2)C1` (racemic) [Example 48, 3-[4-(8,8-dimethyl-spiro[5.5]undec-2-ylmethoxy)-phenyl]-propionic acid], the EC50 lay in the range of 1000 to 10000 nM.

Regarding `O=C(O)CCc1ccc(OCC2CCCC3(CCCCCC3)C2)cc1` (racemic) [Example 49, 3-[4-(spiro[5.6]dodec-2-ylmethoxy)-phenyl]-propionic acid], the EC50 fell in the range of 1000 to 10000 nM.

Consider `CC1=CCCC(C)C12CCCC(COc1ccc(CCC(=O)O)cc1)C2` (racemic) [Example 50, 3-[4-(7,11-dimethyl-spiro[5.5]undec-7-en-2-ylmethoxy)-phenyl]-propionic acid], for which the EC50 was in the range of 100 to 1000 nM.

Consider `CC1CCCC(C)C12CCCC(COc1ccc(CCC(=O)O)cc1)C2` (racemic) [Example 51, 3-[4-(7,11-dimethyl-spiro[5.5]undec-2-ylmethoxy)-phenyl]-propionic acid], for which the EC50 lay within 1000 to 10000 nM.

With `O=C(O)CCc1ccc(OCC2CCC3(CCCCC3)C2)cc1` (racemic) [Example 52, 3-[4-(spiro[4.5]dec-2-ylmethoxy)-phenyl]-propionic acid], the EC50 fell in the range of 1000 to 10000 nM.

Turning to `CC1(C)C=CC2(CCCC(COc3ccc(CCC(=O)O)cc3)C2)CC1` (racemic) [Example 53, 3-[4-(9,9-dimethyl-spiro[5.5]undec-7-en-2-ylmethoxy)-phenyl]-propionic acid], the EC50 was in the range of 1000 to 10000 nM.

Regarding `CC1(C)CCC2(CCCC(COc3ccc(CCC(=O)O)cc3)C2)CC1` (racemic) [Example 54, 3-[4-(9,9-dimethyl-spiro[5.5]undec-2-ylmethoxy)-phenyl]-propionic acid], the EC50 fell in the range of 1000 to 10000 nM.

`CC1(C)CCC=CC12CCCC(COc1ccc(CCC(=O)O)cc1)C2` (racemic) [Example 55, 3-[4-(11,11-dimethyl-spiro[5.5]undec-7-en-2-ylmethoxy)-phenyl]-propionic acid]: the half-maximal effective concentration (EC50) was in the range of 100 to 1000 nM.

As for `CC1(C)CCCCC12CCCC(COc1ccc(CCC(=O)O)cc1)C2` (racemic) [Example 56, 3-[4-(7,7-dimethyl-spiro[5.5]undec-2-ylmethoxy)-phenyl]-propionic acid], the EC50 lay within 1000 to 10000 nM.

In the case of `CC#C[C@H](CC(=O)O)c1ccc(OCC2CCCC3(CCCCC3)C2)cc1` (mixture of isomers) [Example 58, (3R)-3-[4-(spiro[5.5]undec-2-ylmethoxy)-phenyl]-hex-4-ynoic acid], the EC50 fell in the range of 1000 to 10000 nM.

As for `CN(C)C(=O)C(CC(=O)O)c1ccc(OCC2CCCC3(CCCCC3)C2)cc1` (racemic) [Example 59, N,N-dimethyl-3-[4-(spiro[5.5]undec-2-ylmethoxy)-phenyl]-succinamic acid], the EC50 was in the range of 100 to 1000 nM.

`O=C(O)CC(c1ccccc1)c1ccc(OCC2CCCC3(CCCCC3)C2)cc1` (racemic) [Example 60, 3-phenyl-3-[4-(spiro[5.5]undec-2-ylmethoxy)-phenyl]-propionic acid]: the EC50 lay within 1000 to 10000 nM.

Regarding `O=C(O)CCc1ccc(OC2CCCC3(CCCCC3)C2)cc1` (racemic) [Example 61, 3-[4-(spiro[5.5]undec-2-yloxy)-phenyl]-propionic acid], the EC50 is ≥ 10000 nM.

Regarding `O=C(O)CCc1ccc(OCCC2CCCC3(CCCCC3)C2)cc1` (racemic) [Example 62, 3-[4-(2-spiro[5.5]undec-2-yl-ethoxy)-phenyl]-propionic acid], the EC50 is ≥ 10000 nM.

Turning to `CC#C[C@@H](CC(=O)O)c1ccc(OC2CCCC3(CCCCC3)C2)cc1` (mixture of isomers) [Example 64, (3S)-3-[4-(spiro[5.5]undec-2-yloxy)-phenyl]-hex-4-ynoic acid], the EC50 fell in the range of 100 to 1000 nM.

As for `CNC(=O)C(CC(=O)O)c1ccc(OCC2CCCC3(CCCCC3)C2)cc1` (racemic) [Example 65, N-methyl-3-[4-(spiro[5.5]undec-2-ylmethoxy)-phenyl]-succinamic acid], the EC50 was in the range of 1000 to 10000 nM.

With `O=C(O)CC(c1ccc(OCC2CCCC3(CCCCC3)C2)cc1)c1ncco1` (racemic) [Example 66, 3-oxazol-2-yl-3-[4-(spiro[5.5]undec-2-ylmethoxy)-phenyl]-propionic acid], the EC50 fell in the range of 100 to 1000 nM.

For `O=C1NC(=O)C(Cc2ccc(OCC3CCCC4(CCCCC4)C3)cc2)S1` (racemic) [Example 67, 5-[4-(spiro[5.5]undec-2-ylmethoxy)-benzyl]-thiazolidine-2,4-dione], the EC50 was ≥ 10000 nM.

For `CC#C[C@H](c1ccc(OCC2CCCC3(CCCCC3)C2)cc1)C1SC(=O)NC1=O` (mixture of isomers) [Example 68, 5-{(1S)-1-[4-(spiro[5.5]undec-2-ylmethoxy)-phenyl]-but-2-ynyl}-thiazolidine-2,4-dione], the EC50 was 1000 to 10000 nM.

As for `O=C(O)CC(CO)c1ccc(OCC2CCCC3(CCCCC3)C2)cc1` (racemic) [Example 69, 4-hydroxy-3-[4-(spiro[5.5]undec-2-ylmethoxy)-phenyl]-butyric acid], the EC50 is 1000 to 10000 nM.

Take `CC#C[C@@H](CC(=O)O)c1ccc(OCC2CCCC3(CCCCC3)C2O)cc1` (mixture of isomers) [Example 70, (3S)-3-[4-(1-hydroxy-spiro[5.5]undec-2-ylmethoxy)-phenyl]-hex-4-ynoic acid]: the EC50 was in the range of 100 to 1000 nM.

Take `COCC(CC(=O)O)c1ccc(OCC2CCCC3(CCCCC3)C2)cc1` (racemic) [Example 71, 4-methoxy-3-[4-(spiro[5.5]undec-2-ylmethoxy)-phenyl]-butyric acid]: the EC50 lay in the range of 1000 to 10000 nM.

As to `CC#C[C@@H](CC(=O)O)c1ccc(OCC2CCCCC23CCCCC3)cc1` (mixture of isomers) [Example 72, (3S)-3-[4-(spiro[5.5]undec-1-ylmethoxy)-phenyl]-hex-4-ynoic acid], the EC50 was in the range of 1000 to 10000 nM.

Take `CCOC(CC(=O)O)c1ccc(OCC2CCCC3(CCCCC3)C2)cc1` (racemic) [Example 75, 3-ethoxy-3-[4-(spiro[5.5]undec-2-ylmethoxy)-phenyl]-propionic acid]: the EC50 fell in the range of 100 to 1000 nM.

As for `C/C=C\[C@@H](CC(=O)O)c1ccc(OCC2CCCC3(CCCCC3)C2)cc1` (mixture of isomers) [Example 77, (Z)-(3R)-3-[4-(spiro[5.5]undec-2-ylmethoxy)-phenyl]-hex-4-enoic acid], the EC50 fell in the range of 100 to 1000 nM.
